Values quoted from earlier work in patent publication US20260344672A1, “CROP ENHANCEMENT” (SYNGENTA CROP PROTECTION AG, priority 2023, published 2026).

Test system: plant
Conditions: reported in the literature

SMILES | early flowering and grain maturation | leaf area and plant height | photosynthetic capacity (plant greenness) | root system and root hair development | tiller number and productivity | plant health, tolerance to environmental stresses
N#Cc1nn(-c2c(Cl)cc(C(F)(F)F)cc2Cl)c(N)c1[S+]([O-])C(F)(F)F (stereo not drawn) [fipronil] | stimulate early flowering and grain maturation | increase leaf area and plant height | increase photosynthetic capacity (plant greenness) | enhance overall root system and root hair development | increase tiller number and productivity | –
COC(=O)N(OC)c1ccccc1COc1ccn(-c2ccc(Cl)cc2)n1 [pyraclostrobin] | – | – | – | – | – | improve plant health e.g. to improve the tolerance to environmental stresses
